According to BindingDB's records for doi:10.1016/s0960-894x(03)00105-7 (University of California Irvine, 2003):

Biological target: Serine/threonine-protein phosphatase 2A catalytic subunit alpha
Test: Inhibition of protein phosphatase 2A (PP2A) was determined by standard phosphorylase a inhibition assay

IC50 [µM] | Structure (SMILES)
300 | CO[C@@H]([C@H](O)CC(=O)[C@@H](C)[C@@H](O)CC[C@@H](C)[C@@H]1O[C@]2(CC[C@@H](C)[C@H](CC[C@H](C)C(C)=O)O2)CC[C@@H]1C)[C@H](OC(=O)CCCP(=O)(O)O)C(C)C [4-Phosphono-butyric acid (1R,2S,3R,6S,7S,10R)-10-[(2S,3S,6R,8S,9R)-3,9-dimethyl-8-((S)-3-methyl-4-oxo-pentyl)-1,7-dioxa-spiro[5.5]undec-2-yl]-3,7-dihydroxy-1-isopropyl-2-methoxy-6-methyl-5-oxo-undecyl ester]
4 | CO[C@@H]([C@H](O)CC(=O)[C@@H](C)[C@@H](O)CC[C@@H](C)[C@@H]1O[C@]2(CC[C@@H](C)[C@H](CC[C@H](C)C(C)=O)O2)CC[C@@H]1C)[C@H](OC(=O)C[C@@H](O)/C=C(\C)C(=O)O)C(C)C [(E)-(R)-4-Hydroxy-2-methyl-hex-2-enedioic acid 6-{(1R,2S,3R,6S,7S,10R)-10-[(2S,3S,6R,8S,9R)-3,9-dimethyl-8-((S)-3-methyl-4-oxo-pentyl)-1,7-dioxa-spiro[5.5]undec-2-yl]-3,7-dihydroxy-1-isopropyl-2-methoxy-6-methyl-5-oxo-undecyl} ester]
100 | CO[C@@H]([C@H](O)CC(=O)[C@@H](C)[C@@H](O)CC[C@@H](C)[C@@H]1O[C@]2(CC[C@@H](C)[C@H](CC[C@H](C)C(C)=O)O2)CC[C@@H]1C)[C@H](OC(=O)C[C@@](C)(O)C(=O)O)C(C)C [(R)-2-Hydroxy-2-methyl-succinic acid 4-{(1R,2S,3R,6S,7S,10R)-10-[(2S,3S,6R,8S,9R)-3,9-dimethyl-8-((S)-3-methyl-4-oxo-pentyl)-1,7-dioxa-spiro[5.5]undec-2-yl]-3,7-dihydroxy-1-isopropyl-2-methoxy-6-methyl-5-oxo-undecyl} ester]
29 | CO[C@@H]([C@H](O)CC(=O)[C@@H](C)[C@@H](O)CC[C@@H](C)[C@@H]1O[C@]2(CC[C@@H](C)[C@H](CC[C@H](C)C(C)=O)O2)CC[C@@H]1C)[C@H](OC(=O)C[C@](C)(O)C(=O)O)C(C)C [(S)-2-Hydroxy-2-methyl-succinic acid 4-{(1R,2S,3R,6S,7S,10R)-10-[(2S,3S,6R,8S,9R)-3,9-dimethyl-8-((S)-3-methyl-4-oxo-pentyl)-1,7-dioxa-spiro[5.5]undec-2-yl]-3,7-dihydroxy-1-isopropyl-2-methoxy-6-methyl-5-oxo-undecyl} ester]
